Measured values as given in ChEMBL document CHEMBL3525981, “Metabolism and disposition of 14C-labeled peliglitazar in humans” (Drug Metab Dispos, 2011).

These compounds were tested on Homo sapiens (assay: Drug metabolism in human assessed as retention time of parent compound at 10 mg, po by LC-MS and LC-MS/MS analysis). Conditions: in vivo.
Type: ADME, organism-based

SMILES	Retention_time
COc1ccc(OC(=O)N(CC(=O)O)[14C@@H](C)c2ccc(O[14CH2]Cc3nc(-c4ccccc4)oc3C)cc2)cc1	65.5 min

Each compound was assayed on Homo sapiens (assay: Drug level in human assessed as retention time treated with 10 mg, po of [14C]peliglitazar by LC-MS and LC-MS/MS analysis). Conditions: not given.
Type: ADME, organism-based

SMILES	Retention_time
Cc1oc(-c2ccccc2)nc1CC(=O)O	18.5 min
COc1ccc(OC(=O)N(CC(=O)O)[C@@H](C)c2ccc(O)cc2)cc1	21 min
COc1ccc(OC(=O)N(CC(=O)O)[C@@H](C)c2ccc(OCCc3nc(-c4ccccc4)oc3CO)cc2)cc1	39.5 min
COc1ccc(OC(=O)N(CC(=O)O)[C@@H](C)c2ccc(OCC(O)c3nc(-c4ccccc4)oc3C)cc2)cc1 (stereo not given in full)	46.8 min

Other lines, results leading:

Retention_time	SMILES
42.3 min	COc1ccc(OC(=O)N(CC(=O)O)[C@@H](C)c2ccc(OCCc3nc(-c4ccc(O)cc4)oc3C)cc2)cc1
27.6 min	C[C@@H](c1ccc(OCCc2nc(-c3ccccc3)oc2CO)cc1)N(CC(=O)O)C(=O)Oc1ccc(O)cc1
32.1 min	Cc1oc(-c2ccccc2)nc1C(O)COc1ccc([C@H](C)N(CC(=O)O)C(=O)Oc2ccc(O)cc2)cc1 (stereo not given in full)
32.2 min	Cc1oc(-c2ccccc2)nc1CCOc1ccc([C@H](C)N(CC(=O)O[C@@H]2O[C@H](C(=O)O)[C@@H](O)[C@H](O)[C@H]2O)C(=O)Oc2ccc(O)cc2)cc1
48.4 min	Cc1oc(-c2ccccc2)nc1CCOc1ccc([C@H](C)N(CC(=O)O)C(=O)Oc2ccc(O)cc2)cc1
